Values of other authors, collected in US8372797B2, “Treatment of erectile dysfunction by stem cell therapy” (Creative Medical Health, Inc., priority 2006, dated 2013).

Legend:
diabetic rats = settings: intracavernous, gelatin microbeads
[1] = test system: hypercholesterolemic rabbits; settings: systemic administration
[2] = test system: hypercholesterolemic rabbits; settings: two 2.5 microgram doses separated by a 3-week interval into corporal tissue
[3] = test system: model of rat diabetes associated ED; settings: exogenous administration

| Substance | erectile function (diabetic rats) | histological changes in the corpus cavernosum [1] | corporal relaxation and ability to generate NO [2] | erectile function [3] |
| --- | --- | --- | --- | --- |
| bFGF: basic fibroblast growth factor, a known inducer of angiogenesis | protection of erectile function from diabetes mediated onset | favorable histological changes | increase corporal relaxation in response to chemical stimuli | – |
| superoxide dismutase | – | – | – | increase erectile function |
